Measured values: patent US20120328696A1, “ANTI-PARKINSONIAN COMPOUND ACETYLSALICYLIC ACID MALTOL ESTER” (Hutecs Korea Pharmaceutical Co., Ltd., priority 2008, published 2012)

Legend:
Assay type in all cases: in vivo
TH phospho-ser 40 = test: Striatal phospho-TH-ser 40 after MA (western blot); conditions: p.o.; AME 50, EBS 20, rottlerin 20 mg/kg; MA 8 mg/kg i.p. x4; GPx-1 (+/+) and (−/−) mice
Method: (§1) The mice received four times of MA (8 mg/kg, ip) or saline as a 2 hr-time interval. Chemicals (AME, EBS, and PKC inhibitors) were administrated for 5 consecutive days (twice daily), and were given 2 times at 4 hr and 30 min before the first MA injection as shown in the experimental schedule. Animals were sacrificed at 4 hrs and 3 days after the final MA administration.
The western blot assays was performed as described previously (Kim et al., 2003). Tissues were homogenized in lysis buffer, containing 200 mM Tris HCl (pH 6.8), 1% SDS, 5 mM EGTA (ethylene glycol tetraacetic acid), 5 mM EDTA (ethylenediaminetetraacetic acid), 10% glycerol, 1× phosphatase inhibitor cocktail I, 1× protease inhibitor cocktail. Lysate was centrifuged at 12,000×g for 30 min and supernatant fraction was used for Western blot analysis. Proteins (20-50 ug/lane) were separated by 6%, 8%, 10% or 15% sodium dodecyl sulfate-polyacrylamide gel electrophoresis and transferred onto the PVDF membranes. Following transfer, the membranes were preincubated with 5% non-fat milk and incubated overnight at 4° C. with primary antibody against β-actin (1:50000, Sigma, St. Louis, Mo., USA), TH (1:5000, Chemicon), TH phosphor-Ser 19 (1:1000, Chemicon,), TH phosphor-Ser 31 (1:500, Chemicon), TH phosphor-Ser 40 (1:500, Chemicon), F4/80 (1:500, Serotec), GPx1 (1:2500, AbFrontier), PKC (1:5000, Santa Cruz biotechnology, Santa Cruz, Calif., USA), p53 (1:5000, Cell signaling, Beverly, Mass., USA), MDM2 (1:1000, BD Pharmingen, San Jose, Calif., USA), MDM2 phospho-Ser 166 (1:1000, cell signaling), BDNF (1:500, Chemicon), GDNF (1:250, Santa Cruz), COX-2 (1:2000, Cayman, Ann Arbor, MC, USA), IL-6 (1:2000, Abcam, Cambridge, Mass., USA), TNF-a (1:1000, R&D Systems, Mckinley place NE, NM, USA), IFN-γ (1:500, Chemicon) or Iba-1 (1:500, Wako, Osaka, Japan). And then, membranes were incubated with HRP-conjugated secondary anti-rabbit IgG (1:1000, GE healthcare, Piscataway, N.J., USA), anti-mouse IgG (1:1000, Sigma) or anti-goat IgG (1:1000, Sigma) for 2 h. […]

GPx-1 = test: Striatal glutathione peroxidase (GPx) activity after MA; conditions: p.o.; AME 50, EBS 20, rottlerin 20 mg/kg; MA 8 mg/kg i.p. x4; GPx-1 (+/+) mice
Method: as §1
GPx were immediately measured from dissected striatal tissues. The tissues were sonicated in ice-cold 50 mM potassium phosphate buffer (pH 7.4, containing 2 mM EDTA), and were centrifuged at 11,000×g for 15 min at 4° C. The resulting supernatants were collected and the protein concentrations were quantified with the Quant-iT assays, using the Qubit™ fluorometer (Invitrogen, Carlsbad, Calif., USA). Cellular GPx activity was measured by the method of Paglia and Valentine (1967) with minor modification (Shin et al., 2008). The incubation mixture contained 1 mM glutathione, 0.2 mM NADPH, and 1.4 IU glutathione reductase in 0.05 M potassium phosphate buffer, pH 7.0. The reaction was initiated by the simultaneous addition of supernatant (0.3-0.8 mg protein) and 0.25 mM H2O2. The change in absorbance at 340 nm was followed by for 4.5 min and 1 UI of GPx activity was defined as the amount required to oxidize 1 μM NADPH/min, based on the molar absorptivity of […] for NADPH.

[1] = system: glutathione peroxidase (GPx)-1; test: Striatal GPx-1-like immunoreactivity after MA; conditions: p.o.; AME 50, EBS 20, rottlerin 20 mg/kg; MA 8 mg/kg i.p. x4; GPx-1 (+/+) mice
Method: as §1
Animals were sacrificed at 4 hours and 3 days after the last MA injection. They were anesthetized with 60% urethane and perfused transcardially with 50 ml of 50 mM phosphate buffered saline (PBS), followed by 50 ml of a mixture of 4% paraformaldehyde in PBS. The rate of perfusion was 50 ml/min. The brains were removed, post-fixed at 4° C. for 24 h in the same fixative and then cryoprotected in 30% sucrose in PBS. The brains were cut on a horizontal sliding microstome into 40 μm transverse free-floading sections (Kim et al., 1999).
The immunocytochemistry was performed as described previously (Kim et al., 2000a, b). Briefly, prior to incubation with the primary antibodies, sections were preincubated with 0.3% hydrogen peroxide in PBS for 30 min (to block endogenous peroxidase activity), then in PBS containing 0.4% Triton X-100 for 20 min and 1% normal serum for 20 min. The sections were then incubated for 48 h at 4° C. in primary antibody against tyrosine hydroxylase (1:500, Chemicon, Termecula, Calif., USA), GPx1 (1:500, AbFrontier, Seoul, Korea), PKC (1:200, Santa Cruz biotechnology INC, CA, USA) or F4/80 (1:50, Serotec, Raleigh, N.C., USA). The sections were further incubated with secondary biotinylated antisera (1:1000 dilution; Vector, Brulingame, Calif.) for 1 hr, and immersed in avidin-biotin-peroxidase complex (ABC Elite kit, Vector) for 1 hr. Sections were always washed three times with PBS (pH 7.4) between each incubation step. 3,3′-diaminobenzidine (DAB) was used as a chromogen.
The western blot assays was performed as described previously (Kim et al., 2003). […]

protein carbonyl = test: Striatal protein oxidation (protein carbonyl) after MA; conditions: biochemical assay and slot blot; striatum, 3 days after final MA; p.o.; AME 50, EBS 20, rottlerin 20 mg/kg; GPx-1 (+/+) and (−/−) mice
Method: as §1
The amount of oxidized proteins was measured using the Oxyblot kit (Chemicon International, CA) according to the instruction provided by manufacturer. Briefly, the protein carbonyl content was measured by first forming labeled protein hydrazone derivatives using 2,4-dinitrophenylhydrazide (DNP). The DNP-derivatized protein samples were transferred onto PVDF membrane by slot blot apparatus (GE Healthcare). Blots were then incubated with primary antibody specific to the DNP moiety, followed by incubation with a HRP-conjugated secondary antibody. Subsequent visualization was performed using enhanced chemiluminescence system (ECL Plus®, GE healthcare) (Gemma et al., 2004).
The extent of protein carbonyl oxidation in the striatum was assessed by measuring the content of protein carbonyl groups, which was determined spectrophotometrically with the 2,4-dinitrophenyl-hydrazine (DNPH)-labeling procedure (Kim et al., 1997b, 2000b, 2002) as described by Oliver et al. (1987). The results were expressed as nmol of DNPH incorporated/mg protein based on the extinction coefficient for aliphatic hydrazones of 21 mM^−1 cm^−1. Protein was measured using the BCA protein assay reagent (Pierce, Rockford, Ill., USA).

Structure (SMILES)	effect on MA-induced decrease in phospho-TH-ser 40 (TH phospho-ser 40)	effect on MA-induced decrease in striatal GPx-1 activity (GPx-1)	effect on MA-induced decrease in striatal GPx-1-IR [1]	effect on MA-induced increase in protein oxidation (protein carbonyl)
O=c1c2ccccc2[se]n1-c1ccccc1 [EBS, 2-phenyl-1,2-benzisoselenazol-3(2H)-one]	significantly blocked	inhibited MA-induced decrease	inhibited MA-induced decrease in the GPx-1-IR	significantly attenuated
CC(=O)c1c(O)c(C)c(O)c(Cc2c(O)c3c(c(C(=O)/C=C/c4ccccc4)c2O)OC(C)(C)C=C3)c1O [rottlerin]	significantly blocked	inhibited MA-induced decrease	inhibited MA-induced decrease in the GPx-1-IR	significantly attenuated
CC(=O)Oc1ccccc1C(=O)Oc1c(C)occc1=O [AME, 3-(2-methyl-4-pyronyl)-2-acetyloxybenzoate]	significantly blocked	inhibited MA-induced decrease	inhibited MA-induced decrease in the GPx-1-IR	significantly attenuated
